Values of other authors in patent publication US9192591B2, “Method and composition for treating alzheimer-type dementia” (priority 2008, dated 2015).

How the values were obtained:
[1] = system: patients with dementias of the Alzheimer type; conditions: donepezil 5-10 mg per day; rivastigmine 1-4 and 6-12 mg per day; galantamine 8-32 mg per day
[2] = system: patients with Alzheimer's disease treated with tacrine; conditions: propantheline 7.5 mg to 15 mg four times a day
[3] = system: patients
[4] = system: patients with Alzheimer's disease; conditions: skin patches replacing immediate release tablets

Row | Structure (SMILES) | benefits on cognitive and global measures relevant to dementia [1] | effect on peripheral cholinergic gastrointestinal side effects of tacrine (cramping, nausea, vomiting, diarrhea) [2] | patients who discontinued because of vomiting ([3]; compared to less than 1% on placebo) | patients in whom weight declined ([3]; during rivastigmine therapy) | patients reporting loss of appetite ([3]; in vivo) | patients who become nauseated ([3]; oral 6-12 mg/day) | patients who vomit at least once ([3]; oral 6-12 mg/day) | patients with mild or moderate vomiting ([3]; rivastigmine-treated patients) | patients with severe vomiting ([3]; rivastigmine-treated patients) | amount of cognitive improvement and side effects on doubling the dose [4]
1 | COc1cc2c(cc1OC)C(=O)C(CC1CCN(Cc3ccccc3)CC1)C2 (racemic) [donepezil, (±)-2,3-dihydro-5,6-dimethoxy-2-[[1-(phenylmethyl)-4-piperidinyl]methyl]-1H-inden-1-one] | small, but statistically significant, benefits |  |  |  |  |  |  |  |  | 
2 | CC(C)[N+](C)(CCOC(=O)C1c2ccccc2Oc2ccccc21)C(C)C [propantheline] |  | ameliorated |  |  |  |  |  |  |  | 
3 | CCN(C)C(=O)Oc1cccc([C@H](C)N(C)C)c1 [rivastigmine, (S)—N-Ethyl-N-methyl-3-[1-(dimethylamino)ethyl]-phenyl carbamate] | small, but statistically significant, benefits |  | Five | 25% | 17% | About half | about one-third | 14% | 2% | significantly increased the amount of cognitive improvement in patients with Alzheimer's disease without increasing side effects
